ChEMBL document CHEMBL3217749, “Design and synthesis of novel pyranone-based insulin sensitizers exhibiting in vivo hepatoprotective activity” (2013)
The source made the active and inactive calls. The calls are words filed in the database; no cut-off is given here.

Legend:
Mus musculus [1] = test: Hepatoprotective activity against thioacetamide-induced liver toxicity in Swiss albino mouse assessed as protection in serum total bilirubin activity at 20 mg/kg administered for 7 days started 1 day after thioacetamide challenge measured on day 8; assay type: functional
Mus musculus [2] = test: Hepatoprotective activity against thioacetamide-induced liver toxicity in Swiss albino mouse assessed as protection in serum ALP activity at 20 mg/kg administered for 7 days started 1 day after thioacetamide challenge measured on day 8; assay type: functional
[3] = Upregulation of aP2 protein expression in differentiated mouse 3T3L1 cells after 7 days by western blot analysis; assay type: functional, cell-based; settings: 3T3-L1
[4] = Upregulation of FAS protein expression in differentiated mouse 3T3L1 cells after 7 days by western blot analysis; assay type: functional, cell-based; settings: 3T3-L1
Mus musculus [5] = test: Hepatoprotective activity against thioacetamide-induced liver toxicity in Swiss albino mouse assessed as protection against histological damage at 20 mg/kg administered for 7 days started 1 day after thioacetamide challenge measured on day 8 by hematoxylin-eosin staining; assay type: functional, organism-based; set-up: dose 20 mg/kg
3T3-L1 [6] = test: Inhibition of chronic insulin-stimulated insulin resistance in differentiated mouse 3T3L1 cells assessed as 2-deoxy-D-[3H]-glucose uptake after 24 hrs by scintillation counting analysis; assay type: functional, cell-based
3T3-L1 [7] = test: Induction of insulin-stimulated 2-deoxy-D-[3H]-glucose uptake in differentiated mouse 3T3L1 cells at 10 uM after 24 hrs by scintillation counting analysis; assay type: functional, cell-based
Mus musculus [8] = test: Hepatoprotective activity against thioacetamide-induced liver toxicity in Swiss albino mouse assessed as protection in serum ALT activity at 20 mg/kg administered for 7 days started 1 day after thioacetamide challenge measured on day 8; assay type: functional
3T3-L1 [9] = test: Induction of adipogenesis in mouse 3T3L1 cells assessed as lipid accumulation at 10 uM on day 8 by oil Red O staining; assay type: functional, cell-based
Mus musculus [10] = test: Hepatoprotective activity against thioacetamide-induced liver toxicity in Swiss albino mouse assessed as protection in serum AST activity at 20 mg/kg administered for 7 days started 1 day after thioacetamide challenge measured on day 8; assay type: functional
Mus musculus [11] = test: Hepatoprotective activity against thioacetamide-induced liver toxicity in Swiss albino mouse assessed as protection in serum AST activity at 20 mg/kg, po administered for 7 days started 1 day after thioacetamide challenge measured on day 8; assay type: functional, organism-based; set-up: dose 20 mg/kg
Mus musculus [12] = test: Hepatoprotective activity against thioacetamide-induced liver toxicity in Swiss albino mouse assessed as protection in serum total bilirubin activity at 20 mg/kg, po administered for 7 days started 1 day after thioacetamide challenge measured on day 8; assay type: functional, organism-based; set-up: dose 20 mg/kg
Mus musculus [13] = test: Hepatoprotective activity against thioacetamide-induced liver toxicity in Swiss albino mouse assessed as protection against histological damage at 20 mg/kg, po administered for 7 days started 1 day after thioacetamide challenge measured on day 8 by hematoxylin-eosin staining; assay type: functional, organism-based; set-up: dose 20 mg/kg
Mus musculus [14] = test: Hepatoprotective activity against thioacetamide-induced liver toxicity in Swiss albino mouse assessed as protection in serum ALP activity at 20 mg/kg, po administered for 7 days started 1 day after thioacetamide challenge measured on day 8; assay type: functional, organism-based; set-up: dose 20 mg/kg
Mus musculus [15] = test: Hepatoprotective activity against thioacetamide-induced liver toxicity in Swiss albino mouse assessed as protection in serum ALT activity at 20 mg/kg, po administered for 7 days started 1 day after thioacetamide challenge measured on day 8; assay type: functional, organism-based; set-up: dose 20 mg/kg

Row | Molecule | Activity (Mus musculus [1]) [%] | Activity (Mus musculus [2]) [%] | Activity [3] | Activity [4] | Activity (Mus musculus [5]) | Inhibition activity (active/not active) (3T3-L1 [6]) | Activity (3T3-L1 [7]) | Activity (Mus musculus [8]) [%] | Activity (3T3-L1 [9]) | Activity (Mus musculus [10]) [%] | Activity (Mus musculus [11]) [%] | Activity (Mus musculus [12]) [%] | Activity (Mus musculus [13]) | Activity (Mus musculus [14]) [%] | Activity (Mus musculus [15]) [%]
1 | COc1ccc(-c2cc(N(C)CCN3C(=O)SC(Cc4cccc(O)c4)C3=O)c(C#N)c(=O)o2)cc1 (centres undefined) | 100 | 100 | Active | Active | Active | inactive | Active | 89 | Active | 75 |  |  |  |  | 
2 | SILYMARIN |  |  |  |  |  |  |  |  |  |  | 95 | 100 | Active | 100 | 93
3 | COc1ccc(-c2cc(N(C)CCOC(=O)Cc3ccc(O)cc3)c(C#N)c(=O)o2)cc1 | 100 | 100 | Active | Active | Active | inactive | Active | 92 | Active | 60 |  |  |  |  | 
4 | CN(CCBr)c1cc(-c2ccc(Cl)cc2)oc(=O)c1C#N | 100 | 100 | inactive | Active | Active | Active | Active | 100 | Active | 87 |  |  |  |  | 
5 | CN(CCOc1ccc(CC2SC(=O)NC2=O)cc1)c1ccccn1 (centres undefined) |  |  | Active | Active |  | Active | Active |  |  |  |  |  |  |  | 
